In one assay the test system is AMP deaminase-1. In words: AMPD1 assay. Conditions: concentrations up to 100 μM; data not shown. In kind it is biochemical, chicken. An excerpt: Supplemental Experimental Procedures:
Materials. Compounds 2 and 13 were synthesised by PeakDale Molecular and Natalia Shpiro (MRC-PPU, Dundee), respectively, as described previously (Gomez-Galeno, et al., 2010).
A769662 was from Selleck Chemicals and AICAR from Toronto Research Chemicals. Mouse FBP1, PYGM and PFK1 (muscle isoform) were cloned, expressed and purified from E.coli using standard techniques. AMPD was purified from chicken muscle (Smiley, et al., 1967).
PP2Cα expressed in E.coli was from the Division of Signal Transduction Therapy (DSTT, Dundee). Peptides were synthesised by GL Biochem (Shanghai). [γ-32P]-ATP, [1-14C]-acetic acid and [9,10-3H(N)]-palmitic acid were from PerkinElmer. pS79 ACC1 (#3661), ACC1 […]
antibodies were purchased from Cell Signaling Technology. Anti-AMPKα1 (07-350) and AMPKα2 (07-363) used for immunoblotting were from Merck-Millipore. Anti-AMPKγ1 was from Origene (clone Y308). Anti-AMPKγ2 was from Epitomics (S1562). Anti-tubulin (B-5-1-2), anti-FLAG (F7425) and anti-FLAG M2 agarose were from Sigma. Anti-HA (HA.11) was from Covance Research Products. AMPKα1/2 antibodies used for immunoprecipitation kinase assays were described previously (Sakamoto, et al., 2006). […]
AMPK preparations. […] Isolated human AMPKα subunits were expressed as N-terminal GST-fusions in E.coli and activated as described for heterotrimeric complexes. […]

The test system of assay [1] is LKB1−/− mouse embryonic fibroblasts. In words: AMPK and ACC phosphorylation in LKB1-null fibroblasts. The class given is cell-based. Conditions: 1 hr; AICAR 2 mM. As for the experimental part: AICAR (0.5 mM) was included as a positive control. Cell lysates were analyzed using western blotting with the indicated antibodies. (B) AMPKα1 or AMPKα2 complexes were immunoprecipitated from hepatocyte extracts prepared as described in (A) and assayed for kinase activity using 0.2 mM AMARA and 0.1 mM ATP. Results are expressed as the mean Pi incorporated in picomoles per minute-milligram ± SD. (C) Hepatocytes were stimulated with 30 μM C13 for the indicated times prior to harvesting, with AICAR (0.5 mM, 1 hr) as positive control. Lysates were analyzed using western blotting with the indicated antibodies. (D) Mouse hepatocytes were treated with the indicated compounds for 1 hr, and adenine nucleotide ratios were determined using capillary electrophoresis of perchloric acid extracts. […] Lysates were analyzed using western blotting with the indicated antibodies. (F) Wild-type (LKB1^+/+) or LKB1-null (LKB1^−/−) mouse embryonic fibroblasts were incubated with the indicated concentrations of C13 for 1 hr. AICAR (2 mM) was included as a positive control. Lysates were analyzed using western blotting with the indicated antibodies.

In the case of `O=P(O)(O)c1ccc(-c2cc(O)on2)o1` [Compound C2, 5-(5-hydroxyl-isoxazol-3-yl)-furan-2-phosphonic acid], the “effect on enzyme activity” value in the assay with AMP deaminase-1 is given as “None of these enzymes were affected”.

For `CC(C)C(=O)OCOP(=O)(OCOC(=O)C(C)C)c1ccc(C2=NOC(=O)C2)o1` [Compound C13], the “compound-induced phosphorylation of AMPK and ACC” value in assay [1] is listed as “abolished”.
